Measurements taken from patent publication US10251884B2, “Treatment of cancer and benign proliferative disorders” (The University of Manchester, priority 2013, dated 2019).
Marks after values point to notes of the source that are not given here.

Key:
[1] = cited from earlier work
[2] = tested on: HeLa cells; assay: Apoptosis by V450 Annexin V / propidium iodide flow cytometry; type: cell-based
Text: Staining with V450 Annexin V (BD Biosciences) was used to analyse the percentage of cells within a population that are actively undergoing apoptosis. Propidium Iodide (PI) is a standard DNA-staining flow cytometric viability probe and is used to distinguish viable from nonviable cells. Cells that stain positive for V450 Annexin V and negative for PI are undergoing apoptosis. Cells that stain positive for both V450 Annexin V and PI are either in the end stages of apoptosis, are undergoing necrosis, or are already dead. Cells that stain negative for both V450 Annexin V and PI are alive and not undergoing measurable apoptosis.
For this reason these cells were chosen to evaluate the effects of these compounds on cell death. A 2 ml aliquot of growth medium containing 20,000 cells was seeded into each well of a 6 well plate. […] The growth medium was removed and retained and the cells washed with PBS followed by Incubation with 1 ml of Accutase (Life Technologies, Paisley, UK, Catalog Number A11105-01) per well for 15 mins. The original growth medium was then added back to neutralise the Accutase, and this centrifuged at 1,200 rpm for 5 mins to pellet the cells and this repeated twice with cold PBS. The cell pellet was finally re-suspended in 1× binding buffer (10×=0.1 M Hepes (pH 7.4), 1.4 M NaCl, 25 mM CaCl2) at a concentration of 10^6 cell/ml. A 100 μl aliquot containing 10^5 cells was removed and placed in a 5 ml culture tube and 5 μl of V450 Annexin V added plus 10 μl PI (50 μg/ml) added. The cells were gently mixed and incubated at room temperature for 15 min in the dark then 400 μl of 1× binding buffer was added prior to being analysed by flow cytometry using a Cyan ADP instrument (Beckman Coulter) and Summit software within one hour of the above procedure. The Annexin fluorochrome was excited using a 405 nm laser and the emission measured using a 450/50 nm bandpass filter. The PI was excited using a 488 nm laser and the emission detected using a 613/20 nm bandpass filter. The data was gated to select single cells using a plot of forward scatter against pulse width, and to exclude debris using forward scatter plotted against side scatter. All cytometry assays shown were the result of three separate cultures and intra-assay variability was also assessed by repeating the same drug treatment assay (1:1 Lop/Rit) three times. Unstained cells and cells stained separately with either V450 Annexin V or PI were used as controls to optimise compensation and gating of the cytometer.

[3] = tested on: more advanced invasive cervical disease; details: cited from earlier work
[4] = tested on: glioma; details: ritonavir alone; cited from earlier work
[5] = tested on: pre-invasive cells derived from the cervix; details: cited from earlier work
[6] = tested on: SiHa cells; assay: CellTitre 96 AQ colorimetric cell growth assay; type: cell-based; details: 5 μM, 0-72 hours
Description: SiHa cells were grown in RPMI plus 10% FBS and HeLa in DMEM plus 10% FBS. These were seeded at 2000 cells/well for HeLa and 5000 cells/well for SiHa in triplicate into standard tissue culture grade 96 well plates and incubated overnight at 37° C./5% CO2. […] At each time point 20 μl of CellTitre 96® AQ reagent (Promega) was then added to three separate wells per data point and the absorbance (OD490) read after 1 hour at 37° C. The CellTitre 96® AQ reagent is a water soluble MTS formazan version of the well-known MTT reagent which produces a colorimetric readout that is directly proportional to the number of viable cells present.

[7] = tested on: CIN2 lesions; details: young women aged 18-29; topical, physician applied, 16 weeks; cited from earlier work
[8] = tested on: CIN2/3; details: topical application; cited from earlier work
[9] = tested on: HPV infection; details: hybrid capture 2 assay; cited from earlier work
[10] = tested on: CIN and HPV infections; details: cited from earlier work

## Cc1cccc(C)c1OCC(=O)N[C@@H](Cc1ccccc1)[C@@H](O)C[C@H](Cc1ccccc1)NC(=O)[C@H](C(C)C)N1CCCNC1=O (relative stereo) [lopinavir, [1S-[1R*(R*), 3R*, 4R*]]—N-[4-[(2,6-dimethylphenoxy0acetyl]amino]-3-hydroxy-5-phenyl-1-(phenylmethyl)pentyl]tetrahydro-alpha-(1-methylethyl)-2-oxo-1 (2H)-pyrimidineacetamide]
[1]
  solubility in water: virtually insoluble in water
[2]; 48 hrs, total dose 25 μM, concentrations (μM) in the label
  R4 gate Mean (percentage of cells in quadrant R4, late stage apoptosis): 21.8000%
[2]; 48 hrs, versus DMSO control
  Mean Difference to DMSO, R4 gate (Dunnett t): 15.38*
[2]; total dose 25 μM, R4 and R6+R4
  level of apoptosis compared between treatments (FIG. 13): less effective than any of the combination treatments
[2]; versus Lop20Rit5
  Mean Difference, R4 gate (Bonferonni): −13.45*

## CC(C)c1nc(CN(C)C(=O)N[C@H](C(=O)N[C@@H](Cc2ccccc2)C[C@H](O)[C@H](Cc2ccccc2)NC(=O)OCc2cncs2)C(C)C)cs1 (relative stereo) [ritonavir, 10-Hydroxy-2-methyl-5-(1-methylethl)-1-[2-(1-methylethyl)-4-thiazolyl]-3,6-dioxo-8, 11bis(phenylmethyl)-2,4,7,12-tetraazatridecan-13-oic acid, 5-thiazolylmethylester, [5S-(5R*,8R*,10R8,11R*)]]
[3]
  efficacy against more advanced invasive cervical disease: not effective
[4]
  effect against glioma in vivo: no effect
[5]
  activity against pre-invasive cells derived from the cervix: has shown activity
[6]
  effect on cell growth (OD490): no effect

## O=c1[nH]cc(F)c(=O)[nH]1 [5FU]
[7]
  effective against CIN2 lesions: > 90%

## Nc1ccn(C[C@@H](CO)OCP(=O)(O)O)c(=O)n1 [Cidofovir]
[8]
  clearance of CIN: ~60%
[9]
  elimination of HPV infection: did not eliminate HPV infection

## CC(C)Cn1cnc2c(N)nc3ccccc3c21 [Imiquimod]
[10]; before and after LEEP, treatment >8 weeks
  effect against CIN and HPV infections: some effect
[10]; direct application to the cervix
  side effects: quite severe
